Values of other authors in patent US11058666B2, “Oral administration of melanin for protection against radiation” (priority 2011, dated 2021).

Conditions: after 9 Gy delivered at 1 Gy/min, published data

NCCCNCCSP(=O)(O)O [amifostine]
survival: 60%
